In ChEMBL document CHEMBL1201862, “PubChem BioAssay data set” (2004):
Active and inactive are the calls of the source. For most assays here, no stated cut-off is given here; in the data, actives have a measured EC50 and inactives only a lower limit.

How the values were obtained:
[1] = A cytotoxicity screen of small molecule inhibitors of the PhoP region in Salmonella typhi identified in the primary screen. [Related pubchem assays: 1850, 1864, 1985 ]; type: functional
[2] = viability of uninfected HEp-2 cells – cell-based, HTS, cytotoxicity control for RSV inhibitor project, dose response (AID 2410); type: functional; conditions: human respiratory syncytial virus
cells [3] = assay: cells
[4] = target: Voltage-dependent T-type calcium channel subunit alpha-1H (Homo sapiens, UniProt O95180); type: functional;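 further: channel activity triggered by adding a high calcium stimulation buffer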
Chain of Voltage-dependent T-type calcium channel subunit alpha-1H (O95180 whole entry): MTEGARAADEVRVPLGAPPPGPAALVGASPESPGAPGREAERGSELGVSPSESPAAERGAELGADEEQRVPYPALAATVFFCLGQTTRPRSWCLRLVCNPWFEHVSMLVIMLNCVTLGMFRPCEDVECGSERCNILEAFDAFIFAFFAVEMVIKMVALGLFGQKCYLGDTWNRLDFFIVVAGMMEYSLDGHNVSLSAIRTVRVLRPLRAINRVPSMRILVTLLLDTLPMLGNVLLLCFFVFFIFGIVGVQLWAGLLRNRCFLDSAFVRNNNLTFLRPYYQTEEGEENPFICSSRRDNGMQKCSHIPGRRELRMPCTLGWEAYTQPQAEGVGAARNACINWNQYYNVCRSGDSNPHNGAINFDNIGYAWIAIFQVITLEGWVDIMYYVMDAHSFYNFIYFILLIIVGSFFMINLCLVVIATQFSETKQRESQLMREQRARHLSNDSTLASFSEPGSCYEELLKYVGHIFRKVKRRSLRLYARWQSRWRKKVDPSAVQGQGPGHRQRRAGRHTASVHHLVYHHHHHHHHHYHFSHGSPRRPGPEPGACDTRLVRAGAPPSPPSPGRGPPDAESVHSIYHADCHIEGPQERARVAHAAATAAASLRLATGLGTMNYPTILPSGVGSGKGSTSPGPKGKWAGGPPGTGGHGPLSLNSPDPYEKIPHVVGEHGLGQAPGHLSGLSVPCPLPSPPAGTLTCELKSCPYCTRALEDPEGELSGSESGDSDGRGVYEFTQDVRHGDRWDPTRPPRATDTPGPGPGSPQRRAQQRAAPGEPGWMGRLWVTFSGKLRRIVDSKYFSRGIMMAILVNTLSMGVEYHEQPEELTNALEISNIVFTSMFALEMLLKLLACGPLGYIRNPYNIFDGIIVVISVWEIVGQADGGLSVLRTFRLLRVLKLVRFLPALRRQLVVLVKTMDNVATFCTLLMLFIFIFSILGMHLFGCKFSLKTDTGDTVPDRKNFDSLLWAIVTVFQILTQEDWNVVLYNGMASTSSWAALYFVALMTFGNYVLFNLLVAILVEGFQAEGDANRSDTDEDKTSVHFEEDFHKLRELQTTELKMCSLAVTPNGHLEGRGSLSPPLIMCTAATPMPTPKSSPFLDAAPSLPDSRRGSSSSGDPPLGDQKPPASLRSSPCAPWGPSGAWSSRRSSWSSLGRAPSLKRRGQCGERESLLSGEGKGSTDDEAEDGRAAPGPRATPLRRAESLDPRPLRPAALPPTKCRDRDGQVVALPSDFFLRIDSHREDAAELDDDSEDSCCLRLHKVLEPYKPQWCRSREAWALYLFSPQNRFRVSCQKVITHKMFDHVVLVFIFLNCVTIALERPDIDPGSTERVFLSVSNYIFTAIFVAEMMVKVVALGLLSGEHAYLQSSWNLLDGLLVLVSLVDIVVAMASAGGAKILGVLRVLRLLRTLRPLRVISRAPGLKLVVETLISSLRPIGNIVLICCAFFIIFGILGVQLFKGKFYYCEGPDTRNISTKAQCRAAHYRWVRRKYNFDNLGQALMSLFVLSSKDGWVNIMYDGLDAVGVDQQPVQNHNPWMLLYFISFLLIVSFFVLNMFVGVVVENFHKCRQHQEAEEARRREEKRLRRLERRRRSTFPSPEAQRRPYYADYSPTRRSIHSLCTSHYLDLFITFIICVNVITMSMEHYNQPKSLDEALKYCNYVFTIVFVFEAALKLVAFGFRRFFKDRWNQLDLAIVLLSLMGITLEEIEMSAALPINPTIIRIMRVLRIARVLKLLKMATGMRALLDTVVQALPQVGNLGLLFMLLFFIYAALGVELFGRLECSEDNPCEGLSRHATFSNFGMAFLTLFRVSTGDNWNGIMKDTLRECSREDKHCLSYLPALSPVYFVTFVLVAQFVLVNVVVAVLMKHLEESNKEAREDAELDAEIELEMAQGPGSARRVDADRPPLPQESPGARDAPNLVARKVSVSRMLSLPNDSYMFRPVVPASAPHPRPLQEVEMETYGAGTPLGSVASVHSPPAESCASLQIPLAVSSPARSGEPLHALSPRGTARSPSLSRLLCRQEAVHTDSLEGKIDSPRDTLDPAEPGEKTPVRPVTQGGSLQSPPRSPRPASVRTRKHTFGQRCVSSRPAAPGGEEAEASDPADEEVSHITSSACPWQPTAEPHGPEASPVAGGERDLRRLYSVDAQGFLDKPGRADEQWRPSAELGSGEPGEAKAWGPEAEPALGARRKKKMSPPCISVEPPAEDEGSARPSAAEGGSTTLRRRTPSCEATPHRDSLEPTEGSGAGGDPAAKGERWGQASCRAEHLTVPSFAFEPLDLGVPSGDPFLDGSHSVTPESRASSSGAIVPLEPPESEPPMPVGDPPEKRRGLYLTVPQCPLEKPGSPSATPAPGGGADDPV

[5] = luciferase reporter signal suppression in cells – H4 neuroglioma cells, luminescence, dose response (AID 1990); type: functional, cell-based
[6] = alpha-synuclein stem-loop luciferase translation blockers – H4 neuroglioma cells, luminescence, confirmation (AID 1988); type: functional, cell-based
[7] = Luminescence Cell-Based Dose Response HTS to Identify Inhibitors of 5'UTR Stem-Loop Driven Prion Protein mRNA Translation in H4 Neuroglioblastoma Cells. [Related pubchem assays: 1827 (Project Summary), 1813 (Primary HTS)]; type: functional
[8] = luciferase reporter signal reduction – luminescence, H4-C neuroglioblastoma cells, dose response (AID 2458); type: functional, cell-based;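 further: H4 neuroglioblastoma cells stably carrying a luciferase reporter gene fusion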
[9] = alpha-synuclein stem-loop translation blockers – luminescence, H4 neuroglioblastoma cells, dose confirmation, confirmation (AID 2454); type: functional, cell-based;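 further: H4 neuroglioblastoma cells carrying an alpha-synuclein 5'UTR luciferase reporter; potency for inhibition of the luciferase signal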
[10] = DRD fibroblast viability loss – cell-based, non-viral oncogenic, luminescence, dose response (AID 1934); type: functional; conditions: Homo sapiens
BJ [11] = assay: BJ-TERT-LT-ST fibroblast viability loss – cell-based, RAS-independent, luminescence, dose response (AID 1935); type: functional; conditions: Homo sapiens;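 further: BJ fibroblasts immortalized with TERT plus LT and ST oncogenes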
cells [12] = type: functional, cell-based
BJ [13] = assay: cells; type: functional, cell-based; conditions: Homo sapiens
BJ [14] = assay: BJ-TERT fibroblast viability loss – cell-based, RAS-independent, luminescence, dose response (AID 1933); type: functional; conditions: Homo sapiens

With `CN1C(=O)C2(Nc3ccccc3-c3nc4ccccc4n32)c2ccccc21` (stereo not drawn) the EC50 [1] was > 50 µM (active).
For `O=[N+]([O-])c1ccccc1S(=O)(=O)Nc1cccc(-c2ccc(N3CCCC3)nn2)c1`, the CC50 [2] was 40.6 µM (active) and the IC50 (cells [3]) was 5.15 µM (active).
In the case of `COc1ccc(C(=O)Nc2nc3c(s2)CCCC3)cc1S(=O)(=O)N1CCCc2ccccc21`, the CC50 [2] is reported as 3.66 µM (active) and the IC50 (cells [3]) is reported as 5.95 µM (active).
With `CN(C)c1nnnn1-c1ccc(Oc2ccccc2)cc1` the EC50 [1] was > 50 µM (active).
For `Cc1nc2cc(-c3ccccc3)nn2c(C)c1CCC(=O)N1CCN(c2ccccc2)CC1`, the EC50 [4] was 4.59 µM (active), the EC50 [5] was 16.6 µM (active) and the EC50 [6] was 16.1 µM (active). For the same molecule, the EC50 [7] was 13.6 µM (active).
With `Cc1ccc(S(=O)(=O)N2CCCC(c3nc(O)c4nnn(Cc5ccc6c(c5)OCCO6)c4n3)C2)cc1` (stereo not drawn) the CC50 [2] was 14.4 µM (active) and the IC50 (cells [3]) was 10.2 µM (active).
With `CCOc1ccccc1NC(=O)C1CCCN(S(=O)(=O)c2ccc(OC)c(C)c2)C1` (stereo not drawn) the EC50 [4] was 13.6 µM (active).
With `Cc1ccc(NC(=O)CSc2nc3ccccc3c3nc4ccccc4n23)cc1` the EC50 [8] was 0.518 µM (active), the EC50 [9] was 0.992 µM (active) and the EC50 [10] was 0.784 µM (active). The EC50 (BJ [11]) was 6.66 µM (inconclusive), the EC50 (cells [12]) was 0.963 µM (active) and the EC50 (BJ [13]) was 24.2 µM (inconclusive). The EC50 (BJ [14]) was 1.83 µM (inconclusive), the EC50 [5] was 0.142 µM (active) and the EC50 [6] was < 0.1 µM (active). The EC50 [7] was < 0.1 µM (active).
